Experimental data: ChEMBL document CHEMBL1150221, “Isolation and structure determination of nostocyclopeptides A1 and A2 from the terrestrial cyanobacterium Nostoc sp. ATCC53789” (J Nat Prod, 2001)
Calls of active or inactive are those of the source. The rule behind the calls is not given here.

What was measured:
[1] = Inhibition of elastase
[2] = tested on: Candida albicans; assay: Antifungal activity against Candida albicans at 25 ug/disk; assay type: functional, organism-based
[3] = Inhibition of trypsin
[4] = tested on: Pseudomonas aeruginosa; assay: […] activity against Pseudomonas aeruginosa at 25 ug/disk; assay type: functional, organism-based
[5] = Inhibition of chymotrypsin
[6] = tested on: Mycobacterium tuberculosis; assay: […] activity against Mycobacterium tuberculosis 25177 at 25 ug/disk; assay type: functional, organism-based
[7] = Inhibition of protease
[8] = tested on: KB; assay: Cytotoxicity against human KB cells; assay type: functional, cell-based
[9] = tested on: LoVo; assay: Cytotoxicity against human LoVo cells; assay type: functional, cell-based
[10] = tested on: Mycobacterium tuberculosis; assay: […] activity against Mycobacterium tuberculosis 35818 at 25 ug/disk; assay type: functional, organism-based
[11] = target: T1, Papain (Carica papaya, UniProt P00784); assay: Inhibition of papaya papain
T1 sequence (P00784 whole entry): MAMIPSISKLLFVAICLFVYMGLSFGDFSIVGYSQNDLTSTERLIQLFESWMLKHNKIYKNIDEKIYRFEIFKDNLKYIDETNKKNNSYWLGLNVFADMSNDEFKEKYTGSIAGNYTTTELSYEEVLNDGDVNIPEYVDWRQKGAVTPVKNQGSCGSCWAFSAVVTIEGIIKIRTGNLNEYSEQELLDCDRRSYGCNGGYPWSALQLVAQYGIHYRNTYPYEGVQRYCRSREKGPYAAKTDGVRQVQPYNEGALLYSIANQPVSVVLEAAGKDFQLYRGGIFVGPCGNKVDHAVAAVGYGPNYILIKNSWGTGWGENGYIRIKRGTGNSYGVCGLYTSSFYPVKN

[12] = target: Prothrombin (Homo sapiens, UniProt P00734); assay: Inhibition of thrombin
[13] = target: Plasminogen (Homo sapiens, UniProt P00747); assay: Inhibition of plasmin
Sequence of Plasminogen (P00747 97-580 limits assumed): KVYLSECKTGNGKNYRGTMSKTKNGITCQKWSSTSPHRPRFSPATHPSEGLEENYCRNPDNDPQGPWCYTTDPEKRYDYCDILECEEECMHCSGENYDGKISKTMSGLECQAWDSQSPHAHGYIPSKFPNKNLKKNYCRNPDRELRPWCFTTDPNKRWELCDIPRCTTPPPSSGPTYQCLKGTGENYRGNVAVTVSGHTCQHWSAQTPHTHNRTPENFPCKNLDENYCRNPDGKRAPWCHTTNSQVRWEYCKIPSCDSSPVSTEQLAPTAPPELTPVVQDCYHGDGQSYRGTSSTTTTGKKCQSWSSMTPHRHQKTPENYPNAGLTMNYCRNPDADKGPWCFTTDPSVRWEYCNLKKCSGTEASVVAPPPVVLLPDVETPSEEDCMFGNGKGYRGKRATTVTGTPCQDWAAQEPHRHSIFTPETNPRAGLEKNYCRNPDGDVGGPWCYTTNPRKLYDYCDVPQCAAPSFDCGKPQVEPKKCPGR
Sequence of Plasminogen (P00747 581-810 limits assumed): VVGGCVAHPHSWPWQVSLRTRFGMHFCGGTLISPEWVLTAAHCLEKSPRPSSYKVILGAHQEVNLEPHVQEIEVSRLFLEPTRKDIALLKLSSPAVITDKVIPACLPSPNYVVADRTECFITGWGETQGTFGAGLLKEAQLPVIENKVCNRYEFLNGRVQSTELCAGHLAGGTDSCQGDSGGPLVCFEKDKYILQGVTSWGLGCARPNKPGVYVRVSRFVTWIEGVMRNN

Q: With `CC[C@H](C)[C@@H]1NC(=O)[C@@H](CCC(N)=O)NC(=O)CNC(=O)[C@H](Cc2ccc(O)cc2)/N=C/[C@H](Cc2ccccc2)NC(=O)[C@@H]2C[C@H](C)CN2C(=O)[C@H](CO)NC1=O` [NOSTOCYCLOPEPTIDE A2] as the compound, how does the IC50 [1] read?
A: < 25 µM

Q: What about the Activity [2] of the same compound?
A: inactive

Q: What about the IC50 [3] of the same compound?
A: > 50 µM

Q: What about the Activity [4] of the same compound?
A: inactive

Q: And the IC50 [5]?
A: < 25 µM

Q: What about the Activity [6] of the same compound?
A: inactive

Q: And the Activity [7]?
A: inactive

Q: What about the IC50 [8] of the same compound?
A: 1 µM

Q: And the IC50 [9]?
A: 1 µM

Q: What about the Activity [10] of the same compound?
A: inactive

Q: And the IC50 [11]?
A: < 25 µM

Q: And the IC50 [12]?
A: > 50 µM

Q: What about the IC50 [13] of the same compound?
A: > 50 µM

Q: For `CC[C@H](C)[C@@H]1NC(=O)[C@@H](CCC(N)=O)NC(=O)CNC(=O)[C@H](Cc2ccc(O)cc2)/N=C/[C@H](CC(C)C)NC(=O)[C@@H]2C[C@H](C)CN2C(=O)[C@H](CO)NC1=O` [NOSTOCYCLOPEPTIDE A1], which IC50 [1] is on record?
A: < 25 µM

Q: What about the Activity [2] of the same compound?
A: inactive

Q: And the IC50 [3]?
A: > 50 µM

Q: And the Activity [4]?
A: inactive

Q: And the IC50 [5]?
A: < 25 µM

Q: And the Activity [6]?
A: inactive

Q: And the Activity [7]?
A: inactive

Q: And the IC50 [8]?
A: 1 µM

Q: What about the IC50 [9] of the same compound?
A: 1 µM

Q: What about the Activity [10] of the same compound?
A: inactive

Q: What about the IC50 [11] of the same compound?
A: < 25 µM

Q: And the IC50 [12]?
A: > 50 µM

Q: And the IC50 [13]?
A: > 50 µM
